The nature of this data set: method code SF-HPLC, from DOI: 10.2478/s11532-013-0336-y.
What is called logP is a log measure of how a compound divides between an organic and an aqueous phase. Higher therefore signals higher lipophilicity. In turn, `C=CCOc1c(OC)cc(C=CCCC)cc1OC` yielded a logP of 4.28.
In the case of `CCC=Cc1cc(OC)c(OC(=O)c2cccnc2)c(OC)c1` it was 3.5; in that of `C/C=C/c1cc(OC)cc(OC)c1OC`, 2.93; in that of `CCC(O)c1cc(OC)c(OC)c(OC)c1` (stereo not given), 1.45.
In the case of `CCCCCCC(O)c1cc(OC)c(OC)c(OC)c1` (stereo not given) it was 3.59.
To `CCCC/C=C\c1c(OC)cc(OC)cc1OC` belongs 4.57; to `CCCCCC(O)c1cc(OC)c(OC)c(OC)c1` (stereo not given), 2.9.
`CCCCCCCC(O)c1cc(OC)c(OC)c(OC)c1` (stereo not given): the logP worked out at 3.95.
In the case of `CCCC=Cc1cc(OC)c(OC)c(OC)c1` it was 3.67.
In the case of `C/C=C/c1c(OC)cc(OC)cc1OC`, the log partition coefficient (logP) came to 2.61.
In the case of `CC/C=C\c1c(OC)cc(OC)cc1OC` it was 3.56; in that of `C=CCOc1c(OC)cc(C=CC)cc1OC`, 3.22.
In turn, `CC/C=C\c1cc(OC)c(OC)c(OC)c1` came in with a logP of 3.06.
To `C/C=C/c1cc(OC)c(OC)cc1OC` belongs 2.44; to `CCCCC=Cc1cc(OC)c(OC)c(OC)c1`, 4.1; to `CCCCCC=Cc1cc(OC)c(OC)c(OC)c1`, 4.5.
In the case of `CCCCC(O)c1cc(OC)c(OC)c(OC)c1` (stereo not given) it was 2.49.
To `C/C=C/c1cc(OC)c(OC)c(OC)c1` belongs 2.27.
In the case of `CCCC(O)c1cc(OC)c(OC)c(OC)c1` (stereo not given), the logP was 1.94.
Consider `CCC/C=C\c1c(OC)cc(OC)cc1OC`, for which the logP turned out to be 3.97.
Regarding `C/C=C/c1c(OC)ccc(OC)c1OC`, the logP turned out to be 2.73.
To `CC=Cc1cc(OC)c(OC(=O)c2cccnc2)c(OC)c1` belongs 2.94.
In turn, `C=CCOc1c(OC)cc(C=CCC)cc1OC` registered a logP of 3.81.
In the case of `C/C=C/c1ccc(OC)c(OC)c1OC` it was 3.09; in that of `CCCC=Cc1cc(OC)c(OC(=O)c2cccnc2)c(OC)c1`, 3.96.
